Reference: US8575193B2, “N-substituted tetrahydroisoquinoline/isoindoline hydroxamic acid compounds” (4SC AG, priority 2008, dated 2013)
Counter-ions that a name gives are not always drawn.

Legend:
rHDAC6 = target: T1, rHDAC6 (Homo sapiens, UniProt Q9UBN7); assay: rHDAC6 enzymatic assay (recombinant FLAG-HDAC6); format: biochemical; details: FLAG-HDAC6 from HEK293; 10 μM Ac-NH-GGK(Ac)-AMC, 3 h at 30° C.; read-out: rHDAC6 [pIC50] (converted)
T1 construct: FLAG; made in house
T1 sequence (Q9UBN7 1-1215): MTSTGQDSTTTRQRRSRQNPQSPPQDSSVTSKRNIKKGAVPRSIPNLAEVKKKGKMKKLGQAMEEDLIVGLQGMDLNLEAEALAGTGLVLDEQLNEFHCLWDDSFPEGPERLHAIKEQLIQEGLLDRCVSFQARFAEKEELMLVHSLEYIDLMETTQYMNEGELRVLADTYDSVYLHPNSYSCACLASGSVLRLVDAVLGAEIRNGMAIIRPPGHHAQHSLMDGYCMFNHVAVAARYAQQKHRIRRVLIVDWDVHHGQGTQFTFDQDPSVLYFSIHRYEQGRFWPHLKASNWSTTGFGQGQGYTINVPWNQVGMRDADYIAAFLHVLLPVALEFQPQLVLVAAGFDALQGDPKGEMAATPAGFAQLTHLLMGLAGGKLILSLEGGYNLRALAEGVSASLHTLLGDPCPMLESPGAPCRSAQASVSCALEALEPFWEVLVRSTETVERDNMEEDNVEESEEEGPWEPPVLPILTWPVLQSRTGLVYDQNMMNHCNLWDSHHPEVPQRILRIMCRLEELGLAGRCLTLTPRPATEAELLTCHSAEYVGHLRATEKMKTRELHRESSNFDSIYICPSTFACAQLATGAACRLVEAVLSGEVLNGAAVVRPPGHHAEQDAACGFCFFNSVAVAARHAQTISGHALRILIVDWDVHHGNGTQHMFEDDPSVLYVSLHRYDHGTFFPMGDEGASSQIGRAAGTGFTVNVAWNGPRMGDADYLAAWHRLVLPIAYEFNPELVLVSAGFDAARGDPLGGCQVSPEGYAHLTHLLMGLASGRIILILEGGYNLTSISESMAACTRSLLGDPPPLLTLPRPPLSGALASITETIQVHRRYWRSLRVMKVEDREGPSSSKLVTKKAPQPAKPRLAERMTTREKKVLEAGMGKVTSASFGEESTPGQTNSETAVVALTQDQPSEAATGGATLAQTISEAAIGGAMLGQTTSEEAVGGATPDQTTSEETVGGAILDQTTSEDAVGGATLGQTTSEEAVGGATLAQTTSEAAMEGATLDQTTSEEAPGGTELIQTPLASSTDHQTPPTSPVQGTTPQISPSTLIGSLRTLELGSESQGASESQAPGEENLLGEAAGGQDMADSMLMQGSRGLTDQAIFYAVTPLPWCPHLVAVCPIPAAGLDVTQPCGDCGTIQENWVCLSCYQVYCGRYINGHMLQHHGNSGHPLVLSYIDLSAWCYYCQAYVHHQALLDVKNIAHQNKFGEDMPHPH
Source text: (§1) Human HDAC1 and HDAC6 fused with the FLAG epitope are stably expressed in HEK293 cells while human HDAC3 and HDAC8 fused with the FLAG epitope are overexpressed in baculo-virus infected insect (Sf21) cells. To ensure stability of FLAG-HDAC3 the SMRT protein is co-expressed in the corresponding insect cells. […] FLAG-HDAC3 and FLAG-HDAC8 are also purified by M2-agarose affinity chromatography after mass cultivation of the insect cells and cell lysis.
(§2) The HDAC enzyme activity assay is done as described by Wegener et al. (Chem. & Biol. 10, 61-68, 2003). Briefly 40 μl of a 1:100 dilution (=0.4 μl) nuclear HeLa extract (mixture of class I and II HDACs), 29 μl enzyme buffer (15 mM Tris HCl pH 8.1, 0.25 mM EDTA, 250 mM NaCl, 10% v:v glycerol) and 1 μl test compound are added to a well of a 96 well microtiter plate and reaction started by addition of 3 μl substrate (Ac-NH-GGK(Ac)-AMC; final concentration 25 μM and final volume […]). […] After incubation at room temperature for further 40 min, fluorescence is measured using a Wallac Victor 1420 multilabel counter (Ex 355 nm, Em 460 nm) for quantification of AMC (7-amino-4-methylcoumarin) generated by trypsine cleavage of the deacetylated peptide. […] The corresponding pIC50 values of the compounds for HDAC inhibitory activity are determined from the concentration-effect curves by means of non-linear regression (Graphpad Prism software).
(§3) The HDAC1, HDAC3 and HDAC6 enzymatic assays are done with slight modifications with recombinant FLAG-HDAC1 and FLAG-HDAC6 proteins isolated from HEK293 cell lysates or recombinant FLAG-HDAC3 isolated from insect cells, respectively. The HDAC8 enzymatic assay using recombinant FLAG-HDAC8 isolated from insect cells is done with a different substrate. About 4.5 ng/well FLAG-HDAC1 and 3.1 ng/well FLAG-HDAC6 (dependent on batches and specific activity) are incubated with 6 μM or 10 μM Ac-NH-GGK(Ac)-AMC substrate, respectively, for 3 h at 30° C. About 1.7 ng/well FLAG-HDAC3 is incubated with 6 μM Ac-NH-GGK(Ac)-AMC substrate for 2 h at 30° C., while approximately 130 ng/well FLAG-HDAC8 is incubated with 50 μM Ac-RHK(Ac)K(Ac)-AMC substrate for 3 h at 30° C. Termination of the reaction and all further steps are done as described for HeLa cell nuclear extracts as a source for HDAC enzymatic activity. The corresponding pIC50 values of the compounds for HDAC1, HDAC3, HDAC6 and HDAC8 inhibitory activity are determined from the concentration-effect curves by means of non-linear regression.

rHDAC1 = target: T2, rHDAC1 (Homo sapiens, UniProt Q13547); assay: rHDAC1 enzymatic assay (recombinant FLAG-HDAC1); format: biochemical; details: FLAG-HDAC1 from HEK293; 6 μM Ac-NH-GGK(Ac)-AMC, 3 h at 30° C.; read-out: rHDAC1 [pIC50] (converted)
T2 construct: FLAG; made in house
Source text: as §1, §2, §3

[1] = Cellular cytotoxicity assay (Alamar Blue/Resazurin), A549; format: cell-based; details: human, A549 cells; A549, 72 hours incubation, Resazurin; read-out: A549 Cytotoxicity [pIC50] (converted)
Description: (§4) The anti-proliferative activity of the compounds as described herein, is evaluated with various solid and hematological cancer cell lines using the Alamar Blue (Resazurin) cell viability assay (O'Brien et al, Eur J Biochem 267, 5421-5426, 2000). Resazurin is reduced to the fluorescent resorufin by cellular dehydrogenase activity, correlating with viable, proliferating cells. Test compounds are dissolved as 20 mM solutions in dimethylsulfoxide (DMSO) and subsequently diluted in semi-logarithmic steps. The cancer cell lines are seeded into 96 well flat bottom plates at respective cell densities in a volume of 200 μl per well to allow continuous proliferation during the experiment. 24 hours after seeding 1 μl each of the compound dilutions is added into each well of the 96 well plate. Wells containing untreated control cells are filled with 200 μl DMEM medium containing 0.5% v:v DMSO. The cells are then incubated with the substances for 72 hours at 37° C. in a humidified atmosphere containing 5% carbon dioxide. To determine the viability of the cells, 20 μl of a Resazurin solution (Sigma; 90 mg/l) are added. After 4 hours incubation at 37° C. the fluorescence is measured at an extinction of 544 nm and an emission of 590 nm. For the calculation of the cell viability the emission value from untreated cells is set as 100% viability and the emission rates of treated cells are set in relation to the values of untreated cells. Viabilities are expressed as % values. The corresponding pIC50 values of the compounds for cytotoxic activity are determined from the concentration-effect curves by means of non-linear regression.

rHDAC8 = target: T3, rHDAC8 (Homo sapiens, UniProt Q9BY41); assay: rHDAC8 enzymatic assay (recombinant FLAG-HDAC8); format: biochemical; details: FLAG-HDAC8 from insect cells; 50 μM Ac-RHK(Ac)K(Ac)-AMC, 3 h at 30° C.; read-out: rHDAC8 [pIC50] (converted)
T3 construct: FLAG; made in house; host or cells: baculovirus-infected Sf21 insect cells
T3 sequence (Q9BY41 1-377): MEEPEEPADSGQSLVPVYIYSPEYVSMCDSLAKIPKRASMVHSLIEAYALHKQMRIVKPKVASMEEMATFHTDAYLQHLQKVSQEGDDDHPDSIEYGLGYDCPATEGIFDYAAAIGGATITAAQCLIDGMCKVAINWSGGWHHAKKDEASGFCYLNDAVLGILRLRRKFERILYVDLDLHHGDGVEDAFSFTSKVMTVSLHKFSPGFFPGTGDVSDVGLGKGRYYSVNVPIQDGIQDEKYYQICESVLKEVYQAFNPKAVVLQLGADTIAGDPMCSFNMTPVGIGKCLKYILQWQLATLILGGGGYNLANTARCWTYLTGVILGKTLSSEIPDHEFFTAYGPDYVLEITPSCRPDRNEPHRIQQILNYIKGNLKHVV
Source text: as §1, §2, §3

rHDAC3 = target: T4, rHDAC3 (Homo sapiens, UniProt O15379); assay: rHDAC3 enzymatic assay (recombinant FLAG-HDAC3); format: biochemical; details: FLAG-HDAC3 from insect cells; 6 μM Ac-NH-GGK(Ac)-AMC, 2 h at 30° C.; read-out: rHDAC3 [pIC50] (converted)
T4 construct: FLAG; made in house; host or cells: baculovirus-infected Sf21 insect cells
Source text: as §1, §2, §3

[2] = Cellular cytotoxicity assay (Alamar Blue/Resazurin), HeLa; format: cell-based; details: human, HeLa cells, 72 hours incubation, Resazurin, read-out: HeLa Cytotoxicity [pIC50] (converted)
Description: as §4

T2 sequence (Q13547 whole entry): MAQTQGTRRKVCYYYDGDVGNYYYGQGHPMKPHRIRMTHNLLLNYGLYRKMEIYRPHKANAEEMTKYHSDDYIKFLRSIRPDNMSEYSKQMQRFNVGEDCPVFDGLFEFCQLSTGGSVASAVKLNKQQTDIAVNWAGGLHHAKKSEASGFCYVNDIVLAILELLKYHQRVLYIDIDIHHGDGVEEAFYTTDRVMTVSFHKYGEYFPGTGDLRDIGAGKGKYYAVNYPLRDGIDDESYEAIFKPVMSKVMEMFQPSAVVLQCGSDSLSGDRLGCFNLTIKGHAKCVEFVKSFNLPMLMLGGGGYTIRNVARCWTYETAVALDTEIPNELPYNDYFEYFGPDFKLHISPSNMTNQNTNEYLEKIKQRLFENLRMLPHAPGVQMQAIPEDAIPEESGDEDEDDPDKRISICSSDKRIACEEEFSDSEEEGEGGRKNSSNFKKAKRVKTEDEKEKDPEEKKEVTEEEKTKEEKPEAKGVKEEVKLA
T4 sequence (O15379 whole entry): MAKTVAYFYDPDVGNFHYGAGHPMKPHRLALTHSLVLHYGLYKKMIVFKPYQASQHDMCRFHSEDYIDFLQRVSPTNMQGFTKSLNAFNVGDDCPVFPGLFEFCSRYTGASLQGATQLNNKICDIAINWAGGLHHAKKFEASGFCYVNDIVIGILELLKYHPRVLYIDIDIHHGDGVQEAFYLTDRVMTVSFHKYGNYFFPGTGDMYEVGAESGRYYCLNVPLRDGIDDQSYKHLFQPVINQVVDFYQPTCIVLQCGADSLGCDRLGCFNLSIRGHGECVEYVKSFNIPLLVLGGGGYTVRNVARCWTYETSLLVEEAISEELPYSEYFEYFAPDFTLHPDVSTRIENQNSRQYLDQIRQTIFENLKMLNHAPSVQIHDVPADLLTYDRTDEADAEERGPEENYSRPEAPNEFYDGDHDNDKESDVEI
T4 sequence (Q9Y618 whole entry partner): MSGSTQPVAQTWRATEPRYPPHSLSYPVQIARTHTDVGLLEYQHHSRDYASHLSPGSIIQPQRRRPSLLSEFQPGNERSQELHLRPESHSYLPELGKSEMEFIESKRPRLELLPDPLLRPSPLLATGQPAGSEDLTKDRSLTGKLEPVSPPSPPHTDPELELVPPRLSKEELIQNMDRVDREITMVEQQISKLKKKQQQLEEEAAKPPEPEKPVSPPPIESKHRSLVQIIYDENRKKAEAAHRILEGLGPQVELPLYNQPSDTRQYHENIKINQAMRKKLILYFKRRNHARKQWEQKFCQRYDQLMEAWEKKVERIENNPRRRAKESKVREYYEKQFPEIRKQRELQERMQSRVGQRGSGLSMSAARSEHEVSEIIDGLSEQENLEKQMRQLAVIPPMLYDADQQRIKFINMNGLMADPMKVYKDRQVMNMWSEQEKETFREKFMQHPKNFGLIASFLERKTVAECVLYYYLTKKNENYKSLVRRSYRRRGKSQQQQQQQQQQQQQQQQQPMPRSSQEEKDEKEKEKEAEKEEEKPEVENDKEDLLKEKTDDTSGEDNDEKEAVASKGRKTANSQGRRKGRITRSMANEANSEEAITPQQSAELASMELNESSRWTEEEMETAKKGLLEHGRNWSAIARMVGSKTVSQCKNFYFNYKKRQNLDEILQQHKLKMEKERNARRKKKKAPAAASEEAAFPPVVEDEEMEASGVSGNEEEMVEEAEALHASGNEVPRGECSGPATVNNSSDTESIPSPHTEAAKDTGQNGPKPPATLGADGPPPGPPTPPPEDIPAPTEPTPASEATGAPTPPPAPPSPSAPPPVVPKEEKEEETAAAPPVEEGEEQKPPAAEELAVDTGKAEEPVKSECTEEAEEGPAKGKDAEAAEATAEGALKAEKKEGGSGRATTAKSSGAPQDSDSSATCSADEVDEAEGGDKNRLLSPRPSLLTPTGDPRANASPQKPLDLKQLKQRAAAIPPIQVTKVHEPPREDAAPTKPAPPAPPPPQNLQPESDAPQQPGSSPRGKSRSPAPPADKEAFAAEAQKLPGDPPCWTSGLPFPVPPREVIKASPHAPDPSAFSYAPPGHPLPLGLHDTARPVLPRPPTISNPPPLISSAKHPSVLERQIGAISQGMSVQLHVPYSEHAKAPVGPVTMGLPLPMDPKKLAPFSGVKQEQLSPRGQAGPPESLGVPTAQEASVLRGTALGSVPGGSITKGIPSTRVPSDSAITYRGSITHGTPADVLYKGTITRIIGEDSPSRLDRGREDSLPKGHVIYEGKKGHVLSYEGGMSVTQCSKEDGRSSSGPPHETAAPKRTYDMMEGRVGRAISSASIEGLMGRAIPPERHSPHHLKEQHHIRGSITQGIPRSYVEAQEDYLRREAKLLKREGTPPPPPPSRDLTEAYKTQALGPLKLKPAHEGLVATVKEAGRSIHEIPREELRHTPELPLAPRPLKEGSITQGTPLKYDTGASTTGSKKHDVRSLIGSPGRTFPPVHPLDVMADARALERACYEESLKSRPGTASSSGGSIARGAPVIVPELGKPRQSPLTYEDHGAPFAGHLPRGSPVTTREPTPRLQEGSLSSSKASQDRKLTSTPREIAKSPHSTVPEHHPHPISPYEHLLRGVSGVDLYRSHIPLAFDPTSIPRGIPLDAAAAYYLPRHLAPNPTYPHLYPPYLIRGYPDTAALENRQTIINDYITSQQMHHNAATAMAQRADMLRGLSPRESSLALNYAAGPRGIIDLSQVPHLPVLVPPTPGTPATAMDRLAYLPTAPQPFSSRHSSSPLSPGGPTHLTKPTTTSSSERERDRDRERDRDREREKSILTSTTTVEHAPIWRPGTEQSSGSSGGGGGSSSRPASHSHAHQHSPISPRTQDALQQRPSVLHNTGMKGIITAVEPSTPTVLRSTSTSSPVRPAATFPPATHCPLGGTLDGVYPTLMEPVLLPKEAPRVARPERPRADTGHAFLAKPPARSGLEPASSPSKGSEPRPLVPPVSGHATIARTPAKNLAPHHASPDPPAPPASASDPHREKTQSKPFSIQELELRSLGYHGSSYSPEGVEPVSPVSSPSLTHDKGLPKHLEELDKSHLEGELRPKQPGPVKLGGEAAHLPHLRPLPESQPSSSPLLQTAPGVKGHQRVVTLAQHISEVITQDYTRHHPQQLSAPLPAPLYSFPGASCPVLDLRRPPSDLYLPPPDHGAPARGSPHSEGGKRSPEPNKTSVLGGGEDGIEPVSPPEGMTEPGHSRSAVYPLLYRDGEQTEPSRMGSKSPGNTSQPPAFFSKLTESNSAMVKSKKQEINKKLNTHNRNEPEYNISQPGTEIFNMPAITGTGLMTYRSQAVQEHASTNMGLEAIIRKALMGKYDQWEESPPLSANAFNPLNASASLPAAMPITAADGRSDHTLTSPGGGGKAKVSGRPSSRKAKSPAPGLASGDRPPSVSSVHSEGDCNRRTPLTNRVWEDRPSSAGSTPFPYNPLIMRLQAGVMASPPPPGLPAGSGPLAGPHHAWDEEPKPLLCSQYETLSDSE

Cc1nccn1CCC(=O)N1CCc2ccc(C(=O)NO)cc2C1.Cl
melting point: 63 °C

CC(=O)N1CCc2ccc(C(=O)NO)cc2C1 [Example 25, 2-Acetyl-N-hydroxy-1,2,3,4-tetrahydroisoquinoline-7-carboxamide]
melting point: 177 to 181 °C

O=C(NO)c1ccc2c(c1)CN(C(=O)c1ccc3ncccc3c1)C2 [Example 28, N-Hydroxy-2-(quinolin-6-ylcarbonyl)isoindoline-5-carboxamide]
melting point: 208 to 210 °C

O=C(NO)c1ccc2c(c1)CN(C(=O)c1ccc3ccccc3n1)C2 [Example 27, N-Hydroxy-2-(quinolin-2-ylcarbonyl)isoindoline-5-carboxamide]
melting point: 162 to 166 °C

O=C(NO)c1ccc2c(c1)CCN(C(=O)Cc1ccccn1)C2 [Example 2, N-Hydroxy-2-(pyridin-2-ylacetyl)-1,2,3,4-tetrahydroisoquinoline-6-carboxamide hydrochloride]
IC50 (rHDAC6): 0.001 to 0.1 µM | IC50 (rHDAC1): 10 to 100 µM | IC50 at 72 h [1]: > 100 µM

O=C(NO)c1ccc2c(c1)CCN(C(=O)Cc1ccccn1)C2 [Example 14, N-Hydroxy-2-(pyridin-2-ylacetyl)-1,2,3,4-tetrahydroisoquinoline-6-carboxamide hydrochloride]
IC50 (rHDAC8): 1 to 10 µM | IC50 (rHDAC3): 10 to 100 µM | IC50 at 72 h [2]: 1 to 100 µM

O=C(NO)c1ccc2c(c1)CN(C(=O)c1cc3ccccc3cn1)C2 [Example 29, N-Hydroxy-2-(isoquinolin-3-ylcarbonyl)isoindoline-5-carboxamide]
melting point: 208 to 210 °C
